In the experiment the target is T1, h-jak3(810-1124) (JAK3: Recombinant human kinase domain) (Homo sapiens, UniProt P52333).
T1 construct: jak3(810- 1124)-sf9-c; made in house; host or cells: Sf9
The experiment in a line: Determination of IC50 of Janus Kinase (JAK) inhibition: JAK3 radioactive end-point 33P-ATP kinase assay. Type of experiment: biochemical. To be noted: no additive; ATP 1.5 uM, peptide 50 uM, 20 minutes, room temperature; read-out: Ic50 h-jak3(810-1124)-sf9-c: no additive.

Bounds are passed on as bounds.

T1 sequence (P52333 810-1124): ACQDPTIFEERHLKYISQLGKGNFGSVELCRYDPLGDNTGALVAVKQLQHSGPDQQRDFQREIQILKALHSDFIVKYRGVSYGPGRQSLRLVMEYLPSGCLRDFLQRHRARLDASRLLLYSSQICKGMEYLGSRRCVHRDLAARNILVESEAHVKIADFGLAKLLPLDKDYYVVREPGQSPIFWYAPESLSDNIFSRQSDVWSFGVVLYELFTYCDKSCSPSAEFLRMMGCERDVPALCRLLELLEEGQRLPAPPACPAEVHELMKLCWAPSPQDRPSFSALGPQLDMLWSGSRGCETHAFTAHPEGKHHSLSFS

In general, IC50 refers to the concentration at which inhibition is half-maximal. With `N#CC1CCN(C(=O)[C@@H](Cc2ccccc2)NC(=O)c2c[nH]c3ncc(C4CC4)nc23)CC1` [Example I-48, 2-Cyclopropyl-5H-pyrrolo[2,3-b]pyrazine-7-carboxylic acid [(R)-1-benzyl-2-(4-cyano-piperidin-1-yl)-2-oxo-ethyl]-amide], the IC50 was 0.6 nM.
Take `CC(C)(C)[C@@H](NC(=O)c1c[nH]c2ncc(-c3cc(C(F)(F)F)ccn3)nc12)C(=O)N1CCC(C#N)CC1` [Example I-118, 2-(4-Trifluoromethyl-pyridin-2-yl)-5H-pyrrolo[2,3-b]pyrazine-7-carboxylic acid [(R)-1-(4-cyano-piperidine-1-carbonyl)-2,2-dimethyl-propyl]-amide]: the IC50 is 6.05 nM.
The value for `Cn1cc(-c2cnc3[nH]cc(C(=O)N[C@@H](C(=O)N4CC5(COC5)C4)C4CC4)c3n2)cn1` [Example I-85, 2-(1-Methyl-1H-pyrazol-4-yl)-5H-pyrrolo[2,3-b]pyrazine-7-carboxylic acid [(R)-1-cyclopropyl-2-(2-oxa-6-aza-spiro[3.3]hept-6-yl)-2-oxo-ethyl]-amide] was 0.85 nM.
On to `Cn1cc(-c2cnc3[nH]cc(C(=O)N[C@@H](C(=O)N4CCC(C#N)CC4)C(C)(C)C)c3n2)cn1` [Example I-55, 2-(1-Methyl-1H-pyrazol-4-yl)-5H-pyrrolo[2,3-b]pyrazine-7-carboxylic acid [(R)-1-(4-cyano-piperidine-1-carbonyl)-2,2-dimethyl-propyl]-amide], for which the IC50 was 1.52 nM.
As for `O=C(N[C@@H](C(=O)N1CCCC1)C1CCCCC1)c1c[nH]c2ncc(C3CC3)nc12` [Example I-37, 2-Cyclopropyl-5H-pyrrolo[2,3-b]pyrazine-7-carboxylic acid ((R)-1-cyclohexyl-2-oxo-2-pyrrolidin-1-yl-ethyl)-amide], the IC50 was 1.8 nM.
The value for `CC(C)(C)[C@@H](NC(=O)c1c[nH]c2ncc(C3CC3)nc12)C(=O)N1CC[C@H](C#N)C1` [Example I-30, 2-Cyclopropyl-5H-pyrrolo[2,3-b]pyrazine-7-carboxylic acid [(R)-1-((S)-3-cyano-pyrrolidine-1-carbonyl)-2,2-dimethyl-propyl]-amide] was 1.24 nM; that for `C[C@@H](NC(=O)c1c[nH]c2ncc(-c3cc4nccc(OCC(F)(F)F)c4s3)nc12)C(=O)N1CC(C#N)C1` [Example I-102, 2-[7-(2,2,2-Trifluoro-ethoxy)-thieno[3,2-b]pyridin-2-yl]-5H-pyrrolo[2,3-b]pyrazine-7-carboxylic acid [(R)-2-(3-cyano-azetidin-1-yl)-1-methyl-2-oxo-ethyl]-amide] was 43.1 nM.
For `CCC1(C#N)CN(C(=O)[C@H](NC(=O)c2c[nH]c3ncc(-c4cnn(C)c4)nc23)C2CC2)C1` [Example I-151, 2-(1-Methyl-1H-pyrazol-4-yl)-5H-pyrrolo[2,3-b]pyrazine-7-carboxylic acid [(R)-2-(3-cyano-3-ethyl-azetidin-1-yl)-1-cyclopropyl-2-oxo-ethyl]-amide], the IC50 is no more than 0.32 nM.
As to `O=C(N[C@@H](C(=O)N1C[C@@H]2[C@@H](CO)[C@@H]2C1)C1CC1)c1c[nH]c2ncc(C3CC3)nc12` [Example I-86, 2-Cyclopropyl-5H-pyrrolo[2,3-b]pyrazine-7-carboxylic acid [(R)-1-cyclopropyl-2-((1S,5R,6R)-6-hydroxymethyl-3-aza-bicyclo[3.1.0]hex-3-yl)-2-oxo-ethyl]-amide], the IC50 came to 4.02 nM.
The figure for `C[C@@H](NC(=O)c1c[nH]c2ncc(C3CC3)nc12)C(=O)N1CCC(C(F)(F)F)C1` (stereo partly drawn) [Example I-25, 2-Cyclopropyl-5H-pyrrolo[2,3-b]pyrazine-7-carboxylic acid [(R)-1-methyl-2-oxo-2-(3-trifluoromethyl-pyrrolidin-1-yl)-ethyl]-amide] is 16.1 nM; for `CC(C)(C)[C@@H](NC(=O)c1c[nH]c2ncc(OC3CCCC3)nc12)C(=O)N1CCC(C#N)CC1` [Example I-92, 2-Cyclopentyloxy-5H-pyrrolo[2,3-b]pyrazine-7-carboxylic acid [(R)-1-(4-cyano-piperidine-1-carbonyl)-2,2-dimethyl-propyl]-amide] it is 10.9 nM.
Consider `CC(C)(C)[C@@H](NC(=O)c1c[nH]c2ncc(-c3ccccn3)nc12)C(=O)N1CCC(C#N)CC1` [Example I-115, 2-Pyridin-2-yl-5H-pyrrolo[2,3-b]pyrazine-7-carboxylic acid [(R)-1-(4-cyano-piperidine-1-carbonyl)-2,2-dimethyl-propyl]-amide], for which the IC50 worked out at 2.92 nM.
The figure for `C[C@@H](NC(=O)c1c[nH]c2ncc(-c3cc4nccc(N5CCCC5)c4s3)nc12)C(=O)N1CC(C#N)C1` [Example I-101, 2-(7-Pyrrolidin-1-yl-thieno[3,2-b]pyridin-2-yl)-5H-pyrrolo[2,3-b]pyrazine-7-carboxylic acid [(R)-2-(3-cyano-azetidin-1-yl)-1-methyl-2-oxo-ethyl]-amide] is 37 nM.
The value for `Cn1cc(-c2cnc3[nH]cc(C(=O)N[C@@H](C(=O)N4CC(C#N)C4)C(C)(C)C)c3n2)cn1` [Example I-53, 2-(1-Methyl-1H-pyrazol-4-yl)-5H-pyrrolo[2,3-b]pyrazine-7-carboxylic acid [(R)-1-(3-cyano-azetidine-1-carbonyl)-2,2-dimethyl-propyl]-amide] was 279 nM; that for `N#CC1CCN(C(=O)[C@H](NC(=O)c2c[nH]c3ncc(-c4cn(C5CCCC5)cn4)nc23)C2CC2)CC1` [Example I-121, 2-(1-Cyclopentyl-1H-imidazol-4-yl)-5H-pyrrolo[2,3-b]pyrazine-7-carboxylic acid [(R)-2-(4-cyano-piperidin-1-yl)-1-cyclopropyl-2-oxo-ethyl]-amide] was 1.67 nM.
The figure for `CC(C)(C)[C@@H](NC(=O)c1c[nH]c2ncc(-c3cn(CC(F)(F)F)cn3)nc12)C(=O)N1CCC(C#N)CC1` [Example I-122, 2-[1-(2,2,2-Trifluoro-ethyl)-1H-imidazol-4-yl]-5H-pyrrolo[2,3-b]pyrazine-7-carboxylic acid [(R)-1-(4-cyano-piperidine-1-carbonyl)-2,2-dimethyl-propyl]-amide] is 4.05 nM; for `N#CC1CCN(C(=O)[C@H](NC(=O)c2c[nH]c3ncc(-c4cc(-c5cccs5)ccn4)nc23)C2CC2)CC1` [Example I-154, 2-(4-Thiophen-2-yl-pyridin-2-yl)-5H-pyrrolo[2,3-b]pyrazine-7-carboxylic acid [(R)-2-(4-cyano-piperidin-1-yl)-1-cyclopropyl-2-oxo-ethyl]-amide] it is 3.06 nM.
On to `CC(C)(C)[C@@H](NC(=O)c1c[nH]c2ncc(-c3cnc(Cl)s3)nc12)C(=O)N1CCC(C#N)CC1` [Example I-156, 2-(2-Chloro-thiazol-5-yl)-5H-pyrrolo[2,3-b]pyrazine-7-carboxylic acid [(R)-1-(4-cyano-piperidine-1-carbonyl)-2,2-dimethyl-propyl]-amide], for which the IC50 is 5.97 nM.
The figure for `Cc1nc(-c2cnc3[nH]cc(C(=O)N[C@@H](C(=O)N4CC(C#N)C4)C4CC4)c3n2)cn1-c1ccccc1` [Example I-159, 2-(2-Methyl-1-phenyl-1H-imidazol-4-yl)-5H-pyrrolo[2,3-b]pyrazine-7-carboxylic acid [(R)-2-(3-cyano-azetidin-1-yl)-1-cyclopropyl-2-oxo-ethyl]-amide] is 2.66 nM; for `CC(C)(C)[C@@H](NC(=O)c1c[nH]c2ncc(C3CC3)nc12)C(=O)N1CC[C@@H](C#N)C1` [Example I-31, 2-Cyclopropyl-5H-pyrrolo[2,3-b]pyrazine-7-carboxylic acid [(R)-1-((R)-3-cyano-pyrrolidine-1-carbonyl)-2,2-dimethyl-propyl]-amide] it is 0.8 nM; for `C[C@@H](NC(=O)c1c[nH]c2ncc(C3CC3)nc12)C(=O)N1CCC(O)C1` (stereo partly drawn) [Example I-11, 2-Cyclopropyl-5H-pyrrolo[2,3-b]pyrazine-7-carboxylic acid [(R)-2-(3-hydroxy-pyrrolidin-1-yl)-1-methyl-2-oxo-ethyl]-amide] it is 91.5 nM.
The figure for `Cn1cc(-c2cnc3[nH]cc(C(=O)N[C@@H](C(=O)N4CC(F)(F)C4)C4CC4)c3n2)cn1` [Example I-150, 2-(1-Methyl-1H-pyrazol-4-yl)-5H-pyrrolo[2,3-b]pyrazine-7-carboxylic acid [(R)-1-cyclopropyl-2-(3,3-difluoro-azetidin-1-yl)-2-oxo-ethyl]-amide] is 2 nM.
In the case of `N#CC1CCN(C(=O)[C@H](NC(=O)c2c[nH]c3ncc(C4CC4)nc23)C2CC2)CC1` [Example I-61, 2-Cyclopropyl-5H-pyrrolo[2,3-b]pyrazine-7-carboxylic acid [(R)-2-(4-cyano-piperidin-1-yl)-1-cyclopropyl-2-oxo-ethyl]-amide], the IC50 was 0.42 nM.
With `N#CC1CCN(C(=O)[C@H](NC(=O)c2c[nH]c3ncc(C4CC4)nc23)C2(C(F)(F)F)CC2)CC1` [Example I-47, 2-Cyclopropyl-5H-pyrrolo[2,3-b]pyrazine-7-carboxylic acid [(R)-2-(4-cyano-piperidin-1-yl)-2-oxo-1-(1-trifluoromethyl-cyclopropyl)-ethyl]-amide], the IC50 is 1.04 nM.
The value for `N#CC1CCN(C(=O)[C@H](NC(=O)c2c[nH]c3ncc(C4CC4)nc23)C2CCCC2)CC1` [Example I-45, 2-Cyclopropyl-5H-pyrrolo[2,3-b]pyrazine-7-carboxylic acid [(R)-2-(4-cyano-piperidin-1-yl)-1-cyclopentyl-2-oxo-ethyl]-amide] was 0.7 nM; that for `Cn1cc(-c2cnc3[nH]cc(C(=O)N[C@@H](C(=O)N4CC[C@@H](C#N)C4)C(C)(C)C)c3n2)cn1` [Example I-60, 2-(1-Methyl-1H-pyrazol-4-yl)-5H-pyrrolo[2,3-b]pyrazine-7-carboxylic acid [(R)-1-((R)-3-cyano-pyrrolidine-1-carbonyl)-2,2-dimethyl-propyl]-amide] was 0.79 nM; that for `CC(C)[C@@H](NC(=O)c1c[nH]c2ncc(C3CC3)nc12)C(=O)N1CCCC1` [Example I-4, 2-Cyclopropyl-5H-pyrrolo[2,3-b]pyrazine-7-carboxylic acid [(R)-2-methyl-1-(pyrrolidine-1-carbonyl)-propyl]-amide] was 4.86 nM.

Source of the values: patent US8518945B2, “Pyrrolopyrazine kinase inhibitors” (Hoffmann-La Roche Inc., priority 2010, dated 2013).
